Assays:
[1] = molecular target: JAK1 (Homo sapiens (Human), UniProt P23458); assay: Jak Biochemical HTRF Assay, JAK1; settings: HTRF biochemical assay, GST-tagged catalytic domain; top concentration tested […]; read-out: JAK1 IC50
From the text: (§1) Jak Biochemical HTRF Assay Protocol
(§2) Subsequent reagent additions employed an Agilent Bravo.

[2] = molecular target: JAK2 (Homo sapiens (Human), UniProt O60674); assay: Jak Biochemical HTRF Assay, JAK2; settings: HTRF biochemical assay, GST-tagged catalytic domain; top concentration tested […]
From the text: as §1, §2

JAK1, sequence (P23458 875-1153): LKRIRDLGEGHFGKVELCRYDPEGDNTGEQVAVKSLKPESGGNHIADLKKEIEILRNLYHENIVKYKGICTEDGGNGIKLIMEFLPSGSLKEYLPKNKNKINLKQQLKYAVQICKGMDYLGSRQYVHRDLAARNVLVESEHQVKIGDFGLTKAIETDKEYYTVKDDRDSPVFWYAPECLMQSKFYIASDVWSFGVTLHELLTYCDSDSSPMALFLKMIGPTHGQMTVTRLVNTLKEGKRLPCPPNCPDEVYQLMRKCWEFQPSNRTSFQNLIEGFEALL
JAK2, sequence (O60674 849-1124): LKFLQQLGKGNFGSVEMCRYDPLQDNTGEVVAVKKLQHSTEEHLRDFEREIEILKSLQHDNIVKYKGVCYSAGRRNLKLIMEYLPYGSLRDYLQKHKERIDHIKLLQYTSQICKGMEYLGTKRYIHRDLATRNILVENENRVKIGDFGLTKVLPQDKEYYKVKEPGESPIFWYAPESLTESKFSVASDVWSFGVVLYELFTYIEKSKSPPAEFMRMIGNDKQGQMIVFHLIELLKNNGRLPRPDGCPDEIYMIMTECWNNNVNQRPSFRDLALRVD

With `CS(=O)(=O)N1CCC(CC#N)(n2cc(C(N)=O)c(Nc3ccccc3)n2)CC1` [Example 37-2, 1-[4-(cyanomethyl)-1-(methylsulfonyl)piperidin-4-yl]-3-(phenylamino)-1H-pyrazole-4-carboxamide] the IC50 [1] was 0.4 nM and the IC50 [2] was 3 nM.
`CCS(=O)(=O)N1CCC(CC#N)(n2cc(C(N)=O)c(Nc3ccccc3)n2)CC1` [Example 37-3, 1-[4-(cyanomethyl)-1-(ethylsulfonyl)piperidin-4-yl]-3-(phenylamino)-1H-pyrazole-4-carboxamide] gave an IC50 [1] of 1 nM and an IC50 [2] of 12 nM.
Work on `N#CCC1(n2cc(C(N)=O)c(Nc3ccccc3)n2)CCN(S(=O)(=O)c2ccco2)CC1` [Example 37-4, 1-[4-(cyanomethyl)-1-(furan-2-ylsulfonyl)piperidin-4-yl]-3-(phenylamino)-1H-pyrazole-4-carboxamide] yielded an IC50 [1] of 0.6 nM and an IC50 [2] of 2 nM.
`N#CCC1(n2cc(C(N)=O)c(Nc3ccccc3)n2)CCN(S(=O)(=O)C(F)(F)F)CC1` [Example 37-5, 1-{4-(cyanomethyl)-1-[(trifluoromethyl)sulfonyl]piperidin-4-yl}-3-(phenylamino)-1H-pyrazole-4-carboxamide] was tested, and the IC50 [1] was 0.7 nM and the IC50 [2] was 6 nM.
Work on `N#CCC1(n2cc(C(N)=O)c(Nc3ccccc3)n2)CCN(S(=O)(=O)c2ccccc2)CC1` [Example 37-6, 1-[4-(cyanomethyl)-1-(phenylsulfonyl)piperidin-4-yl]-3-(phenylamino)-1H-pyrazole-4-carboxamide] yielded an IC50 [1] of 0.3 nM and an IC50 [2] of 1 nM.
`Cn1cnc(S(=O)(=O)N2CCC(CC#N)(n3cc(C(N)=O)c(Nc4ccccc4)n3)CC2)c1` [Example 37-7, 1-{4-(cyanomethyl)-1-[(1-methyl-1H-imidazol-4-yl)sulfonyl]piperidin-4-yl}-3-(phenylamino)-1H-pyrazole-4-carboxamide] gave an IC50 [1] of 2 nM and an IC50 [2] of 9 nM.
For `N#CCC1(n2cc(C(N)=O)c(Nc3ccccc3)n2)CCN(S(=O)(=O)Cc2ccccc2)CC1` [Example 37-8, 1-[1-(benzylsulfonyl)-4-(cyanomethyl)piperidin-4-yl]-3-(phenylamino)-1H-pyrazole-4-carboxamide], the IC50 [1] was 15 nM and the IC50 [2] was 35 nM.
For `COc1ccc(S(=O)(=O)N2CCC(CC#N)(n3cc(C(N)=O)c(Nc4ccccc4)n3)CC2)cc1` [Example 37-9, 1-{4-(cyanomethyl)-1-[(4-methoxyphenyl)sulfonyl]piperidin-4-yl}-3-(phenylamino)-1H-pyrazole-4-carboxamide], the IC50 [1] was 0.8 nM and the IC50 [2] was 3 nM.
`COc1cccc(S(=O)(=O)N2CCC(CC#N)(n3cc(C(N)=O)c(Nc4ccccc4)n3)CC2)c1` [Example 37-10, 1-{4-(cyanomethyl)-1-[(3-methoxyphenyl)sulfonyl]piperidin-4-yl}-3-(phenylamino)-1H-pyrazole-4-carboxamide] showed an IC50 [1] of 0.7 nM and an IC50 [2] of 3 nM.
In the case of `N#CCC1(n2cc(C(N)=O)c(Nc3ccccc3)n2)CCN(S(=O)(=O)c2cccc(Cl)c2)CC1` [Example 37-11, 1-{1-[(3-chlorophenyl)sulfonyl]-4-(cyanomethyl)piperidin-4-yl}-3-(phenylamino)-1H-pyrazole-4-carboxamide], the IC50 [1] is reported as 0.6 nM and the IC50 [2] is reported as 2 nM.
`N#CCC1(n2cc(C(N)=O)c(Nc3ccccc3)n2)CCN(S(=O)(=O)c2ccccc2Cl)CC1` [Example 37-12, 1-{1-[(2-chlorophenyl)sulfonyl]-4-(cyanomethyl)piperidin-4-yl}-3-(phenylamino)-1H-pyrazole-4-carboxamide] was tested, and the IC50 [1] was 3 nM and the IC50 [2] was 9 nM.
`N#CCC1(n2cc(C(N)=O)c(Nc3ccccc3)n2)CCN(S(=O)(=O)c2ccc(-c3ccccc3)cc2)CC1` [Example 37-14, 1-[1-(biphenyl-4-ylsulfonyl)-4-(cyanomethyl)piperidin-4-yl]-3-(phenylamino)-1H-pyrazole-4-carboxamide] showed an IC50 [1] of 5 nM and an IC50 [2] of 24 nM.
With `N#CCC1(n2cc(C(N)=O)c(Nc3ccccc3)n2)CCN(S(=O)(=O)C2CC2)CC1` [Example 37-15, 1-[4-(cyanomethyl)-1-(cyclopropylsulfonyl)piperidin-4-yl]-3-(phenylamino)-1H-pyrazole-4-carboxamide] the IC50 [1] was 0.4 nM and the IC50 [2] was 3 nM.
`CS(=O)(=O)N1CC(CC#N)(n2cc(C(N)=O)c(Nc3ccccc3)n2)C1` [Example 37-16, 1-[3-(cyanomethyl)-1-(methylsulfonyl)azetidin-3-yl]-3-(phenylamino)-1H-pyrazole-4-carboxamide] gave an IC50 [1] of 79 nM and an IC50 [2] of 366 nM.
`N#CCC1(n2cc(C(N)=O)c(Nc3ccccc3)n2)CN(S(=O)(=O)c2ccco2)C1` [Example 37-17, 1-[3-(cyanomethyl)-1-(furan-2-ylsulfonyl)azetidin-3-yl]-3-(phenylamino)-1H-pyrazole-4-carboxamide] gave an IC50 [1] of 95 nM and an IC50 [2] of 247 nM.
`N#CCC1(n2cc(C(N)=O)c(Nc3ccccc3)n2)CN(S(=O)(=O)C(F)(F)F)C1` [Example 37-18, 1-{3-(cyanomethyl)-1-[(trifluoromethyl)sulfonyl]azetidin-3-yl}-3-(phenylamino)-1H-pyrazole-4-carboxamide] gave an IC50 [1] of 159 nM and an IC50 [2] of 585 nM.
`N#CCC1(n2cc(C(N)=O)c(Nc3ccccc3)n2)CN(S(=O)(=O)c2ccccc2)C1` [Example 37-19, 1-[3-(cyanomethyl)-1-(phenylsulfonyl)azetidin-3-yl]-3-(phenylamino)-1H-pyrazole-4-carboxamide] was tested, and the IC50 [1] was 138 nM and the IC50 [2] was 463 nM.
`N#CCC1(n2cc(C(N)=O)c(Nc3ccccc3)n2)CN(S(=O)(=O)Cc2ccccc2)C1` [Example 37-20, 1-[1-(benzylsulfonyl)-3-(cyanomethyl)azetidin-3-yl]-3-(phenylamino)-1H-pyrazole-4-carboxamide] showed an IC50 [1] of 105 nM and an IC50 [2] of 521 nM.
With `N#CCC1(n2cc(C(N)=O)c(Nc3ccccc3)n2)CN(C(=O)Nc2cccc(F)c2)C1` [Example 38-1, 1-{3-(Cyanomethyl)-1-[(3-fluorophenyl)carbamoyl]azetidin-3-yl}-3-(phenylamino)-1H pyrazole-4-carboxamide] the IC50 [1] was 3 nM and the IC50 [2] was 68 nM.
Work on `N#CCC1(n2cc(C(N)=O)c(Nc3ccccc3)n2)CN(C(=O)NC2CCCCC2)C1` [Example 38-2, 1-[3-(cyanomethyl)-1-(cyclohexylcarbamoyl)azetidin-3-yl]-3-(phenylamino)-1H-pyrazole-4-carboxamide] yielded an IC50 [1] of 20 nM and an IC50 [2] of 628 nM.
In the case of `CC(C)NC(=O)N1CC(CC#N)(n2cc(C(N)=O)c(Nc3ccccc3)n2)C1` [Example 38-3, 1-{3-(cyanomethyl)-1-[(1-methylethyl)carbamoyl]azetidin-3-yl}-3-(phenylamino)-1H-pyrazole-4-carboxamide], the IC50 [1] is reported as 10 nM and the IC50 [2] is reported as 185 nM.
With `Cc1ccc(NC(=O)N2CC(CC#N)(n3cc(C(N)=O)c(Nc4ccccc4)n3)C2)cc1C` [Example 38-4, 1-{3-(cyanomethyl)-1-[(3,4-dimethylphenyl)carbamoyl]azetidin-3-yl}-3-(phenylamino)-1H-pyrazole-4-carboxamide] the IC50 [1] was 12 nM and the IC50 [2] was 191 nM.
For `CCCCNC(=O)N1CC(CC#N)(n2cc(C(N)=O)c(Nc3ccccc3)n2)C1` [Example 38-5, 1-[1-(butylcarbamoyl)-3-(cyanomethyl)azetidin-3-yl]-3-(phenylamino)-1H-pyrazole-4-carboxamide], the IC50 [1] was 4 nM and the IC50 [2] was 214 nM.
In the case of `Cc1ccc(NC(=O)N2CC(CC#N)(n3cc(C(N)=O)c(Nc4ccccc4)n3)C2)cc1` [Example 38-6, 1-{3-(cyanomethyl)-1-[(4-methylphenyl)carbamoyl]azetidin-3-yl}-3-(phenylamino)-1H-pyrazole-4-carboxamide], the IC50 [1] is reported as 2 nM and the IC50 [2] is reported as 69 nM.
Compound `CC(C)c1ccc(NC(=O)N2CC(CC#N)(n3cc(C(N)=O)c(Nc4ccccc4)n3)C2)cc1` [Example 38-7] has an IC50 [1] of 5 nM and an IC50 [2] of 80 nM.
`CC(C)c1ccccc1NC(=O)N1CC(CC#N)(n2cc(C(N)=O)c(Nc3ccccc3)n2)C1` [Example 38-8, 1-[3-(cyanomethyl)-1-{[2-(1-methylethyl)phenyl]carbamoyl}azetidin-3-yl]-3-(phenylamino)-1H-pyrazole-4-carboxamide] was tested, and the IC50 [1] was 14 nM and the IC50 [2] was 428 nM.
`N#CCC1(n2cc(C(N)=O)c(Nc3ccccc3)n2)CN(C(=O)Nc2cc(F)ccc2F)C1` [Example 38-10, 1-{3-(cyanomethyl)-1-[(2,5-difluorophenyl)carbamoyl]azetidin-3-yl}-3-(phenylamino)-1H-pyrazole-4-carboxamide] was tested, and the IC50 [1] was 5 nM and the IC50 [2] was 158 nM.
Work on `Cc1cccc(NC(=O)N2CC(CC#N)(n3cc(C(N)=O)c(Nc4ccccc4)n3)C2)c1` [Example 38-11, 1-{3-(cyanomethyl)-1-[(3-methylphenyl)carbamoyl]azetidin-3-yl}-3-(phenylamino)-1H-pyrazole-4-carboxamide] yielded an IC50 [1] of 4 nM and an IC50 [2] of 78 nM.
Work on `Cc1cc(C)c(NC(=O)N2CC(CC#N)(n3cc(C(N)=O)c(Nc4ccccc4)n3)C2)c(C)c1` [Example 38-12, 1-{3-(cyanomethyl)-1-[(2,4,6-trimethylphenyl)carbamoyl]azetidin-3-yl}-3-(phenylamino)-1H-pyrazole-4-carboxamide] yielded an IC50 [1] of 128 nM and an IC50 [2] of 1440 nM.
`Cc1ccc(NC(=O)N2CC(CC#N)(n3cc(C(N)=O)c(Nc4ccccc4)n3)C2)cc1Cl` [Example 38-13, 1-{1-[(3-chloro-4-methylphenyl)carbamoyl]-3-(cyanomethyl)azetidin-3-yl}-3-(phenylamino)-1H-pyrazole-4-carboxamide] gave an IC50 [1] of 21 nM and an IC50 [2] of 339 nM.
Compound `Cc1cc(Cl)ccc1NC(=O)N1CC(CC#N)(n2cc(C(N)=O)c(Nc3ccccc3)n2)C1` [Example 38-14, 1-{1-[(4-chloro-2-methylphenyl)carbamoyl]-3-(cyanomethyl)azetidin-3-yl}-3-(phenylamino)-1H-pyrazole-4-carboxamide] has an IC50 [1] of 25 nM and an IC50 [2] of 334 nM.
In the case of `N#CCC1(n2cc(C(N)=O)c(Nc3ccccc3)n2)CN(C(=O)Nc2ccc(C#N)cc2)C1` [Example 38-15, 1-{3-(cyanomethyl)-1-[(4-cyanophenyl)carbamoyl]azetidin-3-yl}-3-(phenylamino)-1H-pyrazole-4-carboxamide], the IC50 [1] is reported as 0.9 nM and the IC50 [2] is reported as 21 nM.
